Source: patent publication US8487001B2, “Medium-chain length fatty acids, glycerides and analogues as neutrophil survival and activation factors” (ProMetic BioSciences Inc., priority 2001, dated 2013)

Tests used:
neutrophils (PMN) = experiment: Doxorubicin-induced neutrophil apoptosis, 4 hr incubation with or without MCT; assay type: cell-based, human
Method: (§1) PMN were isolated as described in example 10. Cells (2×10^6/ml) were incubated for 4 hr, at 37° C. in 5% CO2 and 95% humidity in the presence of various concentrations of a chemotherapeutic agent, doxorubicin. Apoptotic cells were evaluated as described in example 10. Data are expressed in percent of apoptotic cells.
as §1, with “doxorubicin with or without MCT (2.5% and 5.0%).” for “a chemotherapeutic agent, doxorubicin.”
Results are expressed in percent of apoptotic cells after 4 hr of incubation in the presence or the absence of doxorubicin with or without MCT. […] However, in the presence of MCT, at a concentration of 2.5% and 5% (v/v), the apoptotic effects of doxorubicin are inhibited. Thus, MCT exerts an anti-apoptotic action on PMN. Apoptosis was also studied using the annexin V-FITC/PI (propidium iodide) to method according to the manufacturer's Biosources recommendations (Apotarget Annexin-VFITC Apoptosis Kit #PHN 1018). Annexin V binds to phosphatidylserine which is transferred from the internal to external membrane in early to late phase apoptosis. Briefly, neutrophils are incubated in the presence or absence of varying concentrations of doxorubicin and MCT. After 24 hr, neutrophils are washed with PBS and stained with […] of Annexin V-FITC and 10 μl of PI (Sigma, 1 mg/ml) for 20 minutes. After incubation, stained cells were fixed in paraformaldehyde (1%) and analyzed for apoptosis using an XL Flow Cytometer (Coulter). Data were then expressed as the percent of apoptotic cells. FIG. 4A represents a time-course response of MCT on doxorubicin-treated neutrophils.

[1] = Doxorubicin-induced neutrophil apoptosis, comparison to GM-CSF (% PMN viability); assay type: cell-based, human; conditions: human
From the text: Table 2 represents the effect of GM-CSF, MCT and tricaprylin on doxorubicin-induced human neutrophil apoptosis.

B16F10 melanoma = experiment: Antitumor activity in B16F10 melanoma model; assay type: in vivo, C57BL/6 mice; conditions: FIG. 10; MCT 25 μMole/mouse i.v. day 7, 9, 14, 16; doxorubicin 10 mg/kg day 10 and 17 (sub-therapeutic); day 22
Method: Female 6-8-week old C57BL/6 mice were injected intravenously on day 0 with 1×10^5 B16F10 melanoma cells from ATCC (source of cell culture, Dr. I. J. Fidler). […] Mice were sacrificed on day 22. Body weight and tumor volume were recorded.

## COc1cccc2c1C(=O)c1c(O)c3c(c(O)c1C2=O)C[C@@](O)(C(=O)CO)C[C@@H]3O[C@H]1C[C@H](N)[C@H](O)[C@H](C)O1 [Doxorubicin, doxorubicin]
Neutrophils (PMN); Experiment 1, doxorubicin 10^-4 M alone (Control, no MCT)
  % Apoptosis of neutrophils (PMN): 27.5%
Neutrophils (PMN); Experiment 1, doxorubicin 10^-5 M alone (Control, no MCT)
  % Apoptosis of neutrophils (PMN): 23.8%
Neutrophils (PMN); Experiment 1, doxorubicin 10^-6 M alone (Control, no MCT)
  % Apoptosis of neutrophils (PMN): 23.2%
Neutrophils (PMN); Experiment 1, doxorubicin 10^-8 M alone (Control, no MCT)
  % Apoptosis of neutrophils (PMN): 18.7%
Neutrophils (PMN); Experiment 1, doxorubicin 10^-10 M alone (Control, no MCT)
  % Apoptosis of neutrophils (PMN): 9.3%
Neutrophils (PMN); Experiment 2, doxorubicin 10^-4 M alone (Control, no MCT)
  % Apoptosis of neutrophils (PMN): 53.2%
Neutrophils (PMN); Experiment 2, doxorubicin 10^-5 M alone (Control, no MCT)
  % Apoptosis of neutrophils (PMN): 66.2%
Neutrophils (PMN); Experiment 2, doxorubicin 10^-6 M alone (Control, no MCT)
  % Apoptosis of neutrophils (PMN): 55.0%
Neutrophils (PMN); Experiment 2, doxorubicin 10^-8 M alone (Control, no MCT)
  % Apoptosis of neutrophils (PMN): 59.2%
Neutrophils (PMN); Experiment 2, doxorubicin 10^-10 M alone (Control, no MCT)
  % Apoptosis of neutrophils (PMN): 60.6%
Neutrophils (PMN); various concentrations of doxorubicin, FIGS. 3A and 3B
  effect on PMN apoptosis: induces PMN apoptosis
[1]
  viability: 6.82 ± 0.5%
B16F10 melanoma
  reduction of the tumor volume: around 25%
